Source: the supplement of paper PMC10290057

Assays:
HCT116 [1] = experiment: AC50 cell viability (CellTiter-Glo); higher = less potent; settings: 48 h
HCT116 [2] = experiment: efficacy (fitted maximal change in viability relative to DMSO control); higher = less cytotoxic (negative = loss of viability); settings: 48 h
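Wherever AC50 cell viability (CellTiter-Glo) is given: HCT116 colorectal carcinoma cells screened at five concentrations per compound, luminescent viability scaled between DMSO wells and empty wells on each plate, curves fitted per compound.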
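Wherever efficacy (fitted maximal change in viability relative to DMSO control) is given: Luminescence-based viability readout, five doses per compound, normalized against on-plate DMSO and empty-well controls, followed by dose-response curve fitting for every drug.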

| Structure (SMILES) | AC50 cell viability (HCT116 [1]) [µM] | efficacy (HCT116 [2]) [%] |
| --- | --- | --- |
| COc1ccc(Cl)c(Nc2ncnc3cc(OCC4CCN(C)CC4)c(OC)cc23)c1 | 23.5 | -93.6 |
| C[N+](C)(C)CC(=O)O [Betaine] | 20.9 | -51.8 |
| COc1cc2c(NC3CCN(C4CCCCC4)CC3)nc(N3CCCN(C(C)C)CC3)nc2cc1OCCCN1CCCCC1 [UNC-0646] | 2.95 | -102 |
| Cc1nn(Cc2ccccc2Cl)c(C)c1CN(C)CC(O)COc1ccc(Cl)cc1 (stereo not drawn) | 18.6 | -92.3 |
| CC1(C)CC[C@@]2(CC[C@]3(C)[C@@H]([C@@H]2C1)C(=O)\C=C\4[C@@]3(C)CC[C@H]5C(C)(C)C(=O)\C(=C/[C@]45C)C#N)NC(=O)C(C)(F)F [Omaveloxolone] | 5.9 | -91.5 |
| CC[C@@]1(O)C(=O)OCc2c1cc1n(c2=O)Cc2cc3c(CN(C)C)c(O)ccc3nc2-1.Cl [Topotecan hydrochloride] | 0.59 | -93 |
| CN[S+]([O-])(=O)NC1=NC=CC(=C1F)CC/2=C(C)/C3=CC=C(OC4=NC=CC=N4)C=C3OC2=O | 1.66 | -43.7 |
| COCCNCc1ccc(-c2cc3nccc(Oc4ccc(NC(=O)C5(C(=O)Nc6ccc(F)cc6)CC5)cc4F)c3s2)nc1 [Sitravatinib] | 6.61 | -104 |
| C=CC(=O)N1CCC(Oc2cc3c(Nc4ccc(Cl)c(Cl)c4F)ncnc3cc2OC)CC1 [Poziotinib] | 18.6 | -106 |
| C[C@](O)(COc1ccc(C#N)cc1)C(=O)Nc1ccc(C#N)c(C(F)(F)F)c1 [Ostarine] | 20.9 | -91.5 |
| ClC1=CC\2=C(NC(=O)\C(=C2N[C@@H]3CN4CCC3CC4)C5=NC6=C([NH]5)C=CC=C6)C=C1 [CHIR-124] | 0.833 | -80.9 |
| OCCNC1CCCc2c1[nH]c1ccc(-c3ccccc3)cc21 (stereo not drawn) [CASIN] | 8.33 | -95.3 |
| O=C1c2ccccc2-[n+]2ccc3c([nH]c4ccccc43)c21 [Fascaplysin] | 0.742 | -88.3 |
| O=C(O)c1ccc2cc(-c3ccc(O)c(C45CC6CC(CC(C6)C4)C5)c3)ccc2c1 [AHPN] | 2.95 | -88.2 |
| C[S+](=O)([O-])c1cccc(CNc2nc(Nc3ccc4c(c3)CCC(=O)N4)ncc2C(F)(F)F)c1 | 5.9 | -71.5 |
| OC(c1ccc(-c2ccc(CN3CCN(Cc4ccncc4)CC3)cc2)c(F)c1)(C(F)(F)F)C(F)(F)F [SR-2211] | 10.5 | -44.3 |
| COc1cc2ncnc(-n3nc(-c4ccccn4)nc3N)c2cc1OC | 4.68 | -47.9 |
| CN1CCN(c2ccc(C(=O)Nc3n[nH]c4ccc(Cc5cc(F)cc(F)c5)cc34)c(NC3CCOCC3)c2)CC1 [Entrectinib] | 5.25 | -101 |
| COc1ccc(C(=O)c2c(C)n(CCN3CCOCC3)c3ccccc23)cc1 [Pravadoline] | 1.32 | -67.1 |
| COc1cc2c(Nc3ccc(NC(=O)c4ccccc4)cc3)ncnc2cc1OCCCN1CCOCC1 | 18.6 | -120 |
| CC1(N2CCC(n3c([C@@H]4CCCNC4)nc4ccccc43)CC2)CCCCCCC1 [MCOPPB] | 9.34 | -82.3 |
| C[S+](=O)([O-])c1ccc(-c2nnc(/C=C/c3nnc(-c4ccc(C#N)cc4)o3)n2-c2ccccc2Cl)nc1 [G-007-LK] | 14.8 | -48.4 |

| Structure (SMILES) | AC50 cell viability (HCT116 [1]) [µM] | efficacy (HCT116 [2]) [%] |
| --- | --- | --- |
| C[S+](=O)([O-])N1CCc2c(-c3cnc(N)nc3)nc(N3CCOCC3)nc21 | 0.661 | -56.8 |
| C[C@@H](N)c1ccc(C(=O)Nc2ccnc3[nH]ccc23)cc1 | 4.68 | -62.4 |
| CC1CC2=CC=CC=C2N1C(=O)C\C3=N\C(=O)\C=C(/N3)N4CCOCC4 (stereo not drawn) | 18.6 | -57.5 |
| Cc1cnc(Nc2ccc(CN3CCOCC3)cc2)nc1Nc1cccc([S+](=O)([O-])NC(C)(C)C)c1 [TG-46] | 2.63 | -97.9 |
| NC(=O)Nc1cc(-c2ccc(CN3CCOCC3)cc2)sc1C(N)=O [AZ-TAK1 Inhibitor] | 5.25 | -71 |
| CCc1ccc2nc(Nc3cc(Cc4ccccc4)nc(N[C@H]4CC[C@H](O)CC4)n3)sc2c1 | 18.6 | -65.1 |
| CN1CC[C@H]([C@@H]1CO)C2=C3OC(=C/C(=O)C3=C(O)C=C2O)\C4=C(Cl)C=C(C=C4)C(F)(F)F [Voruciclib] | 7.42 | -83.8 |
| Clc1ccccc1C(c1ccccc1)(c1ccccc1)n1cccn1 [TRAM-34] | 18.6 | -41.5 |
| COc1cccc2c1C(=O)c1c(O)c3c(c(O)c1C2=O)C[C@@](O)(C(=O)CO)CC3OC1CC(N2CCOC(OC)C2)C(O)C(C)O1 (stereo partly drawn) [Nemorubicin] | 0.0263 | -66 |
| OC[C@H]1O[C@H](C[C@@H]1O)N2\C=C(F)/C(=O)NC2=O [Floxuridine] | 0.235 | -82.9 |
| C/C(NNC(=O)c1cccc([S+](=O)([O-])N2CCOCC2)c1)=C1\C=C(Cl)C=CC1=O [SP-2509] | 2.63 | -72 |
| Fc1ccc(C(OCCN2CCN(CCCc3ccccc3)CC2)c2ccc(F)cc2)cc1 [Vanoxeamine] | 11.8 | -96.8 |
| COC(=O)c1ccc([C@H]2c3[nH]c4ccccc4c3C[C@H](C(=O)OC)N2C(=O)CCl)cc1 [RSL3] | 11.8 | -110 |
| C=CC(=O)Nc1cccc(Nc2nc(Nc3ccc(NC4CN(CCF)C4)cc3OC)ncc2C(F)(F)F)c1 [CNX-2006] | 10.5 | -105 |
| CC\1=C/C=C\C=[N]1[Pt](N)(Cl)Cl [Picoplatin] | 20.9 | -50.8 |
| CN1CCC(CNc2ccc3ncc(-c4cccc(OC(F)(F)F)c4)n3n2)CC1 [SGI-1776] | 6.61 | -102 |
| Cc1cc2c(F)c(Oc3ncnn4cc(OC[C@@H](C)O)c(C)c34)ccc2[nH]1 [Brivanib] | 9.34 | -80.3 |
| CO[C@H]1CC[C@H](N2C(=O)CNc3ncc(-c4ccc(C(C)(C)O)nc4)nc32)CC1 [CC-223] | 9.34 | -85.5 |
| C=C(C)[C@H]1Cc2c(ccc3c2O[C@@H]2COc4cc(OC)c(OC)cc4[C@@H]2C3=O)O1 [Rotenone] | 0.525 | -64.9 |
| CNC(=O)c1cc(Oc2ccc(NC(=O)Nc3cc(C(C)(C)C)nn3-c3ccc4ncccc4c3)c(F)c2)ccn1 [DCC-2036] | 11.8 | -76 |
| O=C(O)c1ccc2c(c1)nc(Nc1cccc(Cl)c1)c1ccncc12 [Silmitasertib] | 5.9 | -87.1 |
| CCNC(=O)c1cc2c(-c3cc(OCCN4CCCC4)c(Cl)cc3Cl)nc(N)nc2s1 | 0.456 | -57.9 |
